# Experimental data taken from article PMC12266748, “A Xanthine Derivative With Novel Heat Shock Protein 90‐Alpha Inhibitory and Senolytic Properties” (Aging Cell, 2025).
# Columns and labels:
# MCF7 cells = assay: Western blot of MCF7 protein expression after Tamoxifen treatment; assay type: cell-based, Homo sapiens; conditions: MCF7, TAM 10 μM + K5 10 μM, compared to DMSO
# Experimental: WB was performed according to standard procedures and detected by UVITEC (Eppendorf). Densitometric analysis was performed with NIH ImageJ 1.8 software.
# Western Blot. WB was performed according to standard procedures. Total protein extract was performed as in (Aiello et al. 2016). Western blot assay used 10 µg of protein extract and proteins solved by SDS-PAGE. […] Densitometric analysis was performed with NIH Image J 1.8 software (National Institutes of Health, Bethesda, MD, USA), and specific values were normalized to loading control (β-Actin).
# Drosophila melanogaster = Drosophila melanogaster lifespan assay; assay type: in vivo
# Experimental: Experiments were carried out with wild‐type Canton‐S Drosophila melanogaster, originating (Stock #64349) from the Bloomington Drosophila Stock Centre (Indiana University). Flies were reared on Nutri‐Fly Bloomington Formulation food medium (Genesee Scientific). Vials containing only fresh food were alternated with vials containing food supplemented with K5. The number of living flies was counted every 2–3 days. Detailed protocols are reported in the extended section.
# Drosophila melanogaster maintenance and lifespan assays. All experiments were carried out with wild-type Canton-S Drosophila melanogaster. Canton-S flies originated (Stock #64349) from the Bloomington Drosophila Stock Centre (Indiana University, Bloomington, IN, USA). Flies were reared on Nutri-Fly Bloomington Formulation food medium (Genesee Scientific, El Cajon, CA, USA) prepared using 176 g of Nutri-Fly per liter of distilled H2O. After cooling to 70°C, 4.8 mL of propionic acid (Merck KGaA, Darmstadt, Germany) per liter of food was added. Flies were maintained at constant temperature (25.0 ± 0.2°C) with 60% relative humidity on a 12 h:12 h 300 lux light-dark cycle generated by a 4000°K LED lamp (Fridge 1.5W, Ecoman Italia S.r.l., Frascati, Italy).
# For lifespan assays, newly enclosed Drosophila melanogaster (1 to 2 days old) were collected and placed separately in vials (each containing 10 male and 10 female flies). Two experiments were performed. In the first experiment, 300 flies were randomly divided into three groups (CTRL, K5 10 µg/mL, and K5 100 µg/mL). Vials containing only fresh food (Nutri-Fly Bloomington Formulation food medium) were alternated 3 times a week with vials containing food supplemented with K5. The K5 was dissolved in DMSO and then diluted 1:10 in corn oil. 5 µL of corn oil (containing 0, 10 µg, or 100 µg of K5) was added to each mL of freshly prepared Nutri-Fly Bloomington Formulation food medium. In the second experiment, 900 flies were divided by sex into CTRL group and K5 10 µg/mL treated group. […] All experiments counted the number of living flies every 2–3 days.
# C57BL/6J mice = assay: Extended study in geriatric C57BL/6J mice (biochemistry, function, necropsy, cytokines, SA-β-gal in organs); assay type: in vivo, mouse
# Experimental: Sections were prepared from organs and ear biopsies from snap‐frozen tissues and mounted on SuperFrost Plus slides (VWR). SA‐β‐gal staining was performed according to the manufacturer's instructions for the Sigma‐Aldrich‐QIA117 staining kit (Sigma‐Aldrich). Nuclei were counterstained with Nuclear Fast Red (Sigma‐Aldrich), and images were acquired using a Zeiss AxioCam HRc mounted on a Leitz Laborlux S light microscope. The percentage of senescent cells was determined with QuPath v. 0.3.2 (Bankhead et al. [2017]).
# All experiments were performed per the European Community Council Directives of 2010/63/UE. The pilot study (PS) investigated safety and potential senolytic efficacy, and the Extended study (ES) investigated functional changes, pathological phenotype, and the principal organ targeted by K5. Protocols were approved according to current Italian law (D.Lgs. n. 26/2014) by OPBA (animal care and health committee) of IRCCS INRCA and by the General Direction of Animal Health and Veterinary Drugs of the Italian Ministry of Health with authorization n°‐137/2021‐PR for PS and authorization n°‐370/2022‐PR for ES. In the PS of p16‐3MR mice (26 months), bioluminescence associated with p16‐expression was monitored before and after treatment, and the health of the mice was longitudinally studied. The ES used geriatric C57BL/6J mice (31 months). Clinical health and physical performance were analyzed before and after K5 treatment. Subsequently, the animals were euthanized, gross necropsies were performed, and organs were collected for further analysis. Detailed protocols are reported in the extended section.
# Blood samples were collected from the right retroorbital plexus. Glucose (GLUC), creatinine (CREA), aspartate aminotransferase (AST/GOT), and alanine aminotransferase (ALT/GPT) were determined in EDTA‐plasma by using an automated analyzer (Cobas Mira, Roche) according to the manufacturer's instructions. Cytokines were measured in EDTA‐plasma using the ProcartaPlex Mouse Cytokine & Chemokine Panel 1, 26plex (Thermofisher) and read in the Luminex 200 instrument (Bio‐Rad), following the producer's recommendation.
# We measured the clinical frailty index (CFI), Clinical Health Score (CHS), Physical Function Score (PFS), and Vitality Score (VS) in mice, as previously described (Marcozzi et al. [2023]). All frailty measurements were performed in a dedicated INRCA SPF animal facility area. The CFI score for each mouse was calculated as previously published (Whitehead et al. [2014]). The VS was obtained by calculating the arithmetic mean of the individual values of CHS and PFS. Several tests were assessed for endurance and speed Scores; details are reported in the extended methods.
# For aged tissues: 10 μm-thick tissue sections were prepared from nine organs (liver, heart, lung, kidney, quadriceps, gastrocnemius, brain cortex, cerebellum, and hippocampus) and ear biopsies with a cryostat from snap-frozen tissues and mounted on SuperFrost Plus slides (VWR, Radnor, PA, USA). SA-β-gal staining was performed according to the manufacturer's instructions of the Sigma-Aldrich-QIA117 staining kit (Sigma-Aldrich, St. Louis, MO, USA). Nuclei were counterstained with Nuclear Fast Red (NFR) (Sigma-Aldrich, St. Louis, MO, USA), and images (from […] sections) were acquired using a Zeiss AxioCam HRc mounted on a Leitz Laborlux S light microscope. The percentage of senescent cells was determined as the mean of 3–4 images from each tissue section by counting the total and SA-β-gal-positive cells with the positive cell detection tool available in the open-source software for digital image analysis, QuPath v. 0.3.2 (Bankhead et al. 2017).
# In the extended study, more geriatric C57BL/6J mice were used to confirm safety and investigate the main organs targeted by K5 (Fig. S5). For this purpose, 26 geriatric mice (14 males, 12 females, aged 31 months) and 24 geriatric mice (13 males, 11 females, and 31 months) were treated with K5 and the Vehicle. […]
# [1] = geriatric C57BL/6J mice, vs control
compound,measurement,setting,value
"Cc1ccccc1-n1c(=O)n(Cc2ccccc2)c(=O)c2[nH]cnc21 [Compound K5, 1-benzyl-3-(2-methylphenyl)-7H-purine-2,6-dione]",Caspase 3 protein level,MCF7 cells,further increased
same,"effect on lifespan, preliminary treatment","Drosophila melanogaster; K5 10 μg/mL and 100 μg/mL, 100 flies per group, p = 0.034",significant overall difference in lifespan
same,increase of average lifespan compared to controls,"Drosophila melanogaster; K5 10 μg/mL in food from day 20, n = 884",6.63%
same,average lifespan of treated flies,"Drosophila melanogaster; K5 10 μg/mL in food from day 20, n = 884, controls 47.54 days ± 0.74 SE",50.69 days
same,body weight,"C57BL/6J mice; geriatric C57BL/6J mice, throughout the treatment period",remained stable
same,"plasma levels of glucose, creatinine, GOT, and GPT, treated vs control","C57BL/6J mice; geriatric C57BL/6J mice, two rounds of three injections",no significant differences
same,SA-β-gal staining in the liver,C57BL/6J mice; [1],significantly reduced staining
same,SA-β-gal staining in the pancreas,C57BL/6J mice; [1],significantly reduced staining
same,circulating IL-1β,"C57BL/6J mice; geriatric C57BL/6J mice, vs controls",significant reduction
same,Physical Function Score vs control,C57BL/6J mice; treated male mice,significant increase
same,Vitality Score vs control,C57BL/6J mice; treated male mice,significant increase
same,tumor incidence at gross necropsy,C57BL/6J mice; treated male mice,lower incidence of tumors
